In article PMC12057046, “Elucidation of short linear motif-based interactions of the MIT and rhodanese domains of the ubiquitin-specific protease 8” (Biology Direct, 2025):

Each substance was assayed against T1, USP8 Rhod domain (Homo sapiens, UniProt P40818) (assay: Peptide-phage display-based deep mutational scanning (DMS), USP8 Rhod domain). Conditions: PSSM, library USP8_DMS, days 2,3; position 7.
T1 construct: USP8 Rhod (174–317) (UniProt: P40818); GST (cleaved yes); made in house; host or cells: Escherichia coli BL21-Gold (DE3)
T1 sequence (P40818 174-317): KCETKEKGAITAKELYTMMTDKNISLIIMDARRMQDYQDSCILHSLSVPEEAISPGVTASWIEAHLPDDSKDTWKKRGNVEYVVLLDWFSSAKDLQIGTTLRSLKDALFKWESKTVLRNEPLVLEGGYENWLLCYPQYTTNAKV
Assay type: binding
Method: Four rounds of phage selections were carried out using the second generation human disorderome library or the constructed deep mutational scanning library. At least three individual replicates were used for each bait protein. 10 µg of GST-tagged proteins or GST control (diluted in PBS from the stock of proteins kept in the purification elution buffer) were immobilized in 100 µL PBS on a 96-well MaxiSorp (Nunc) plate overnight at 4 °C. The plates were incubated with blocking buffer (with 0.5% BSA in PBS) for 1 h at 4 °C followed by washing with 0.05% Tween 20 in PBS four times. The naïve phage library (10^11 CFU) was diluted in 1/5th volume PEG/NaCl (20% PEG-8000, 0.4 M NaCl) and 1X PBS, incubated on ice for 10 min and centrifuged at 10,000 [drawing 3] g for 10 min. The pellet was resuspended in the volume of PBS (100 µL/ well). The GST-coated control plate was incubated with 100 µL library per well in PBS for 1 h at 4 °C to remove non-specific binders. The supernatant was transferred to the target wells and incubated for 2 h at 4 °C. The wells were washed five times with 0.05% Tween 20 in PBS and the bound phages were eluted with 100 µL per well log-phase E. coli OmniMAX by incubating at 37° C while shaking. After 30 min, M13KO7 helper phages were added and incubated for an additional 45 min. The bacterial cultures were transferred to 1 mL 2YT supplemented with 100 µg/mL carbenicillin, 30 µg/mL kanamycin and 0.3 mM IPTG and grew overnight at 37 °C while shaking. The following day the cultures were centrifuged for 10 min at 2,000 [drawing 4] g, 4 °C. 1/10th volume of 10 [drawing 5] PBS was added to adjust the pH and heated at 65 °C for 10 min. The phage pools from each round were used as in-phages for the next round of selections.
The samples were prepared for NGS as previously described. […] The PCR products were normalized with 25 µL Mag-bind Total Pure NGS beads (Omega Biotek) and 10 µL of each eluted sample (Qiagen Elution Buffer) was pooled and cleaned-up with a PCR purification kit (Qiagen). The PCR product was confirmed by 2% agarose electrophoresis and the band was extracted with QIAquick Gel extraction Kit (Qiagen) and eluted with 30 µL TE buffer. The dsDNA was quantified using QuantiT PicoGreen dsDNA Assay Kit (Thermo Fisher) and sent for NGS (Illumina MiSeq v3, 1 × 150 bp read setup, 20% PhiX, NGI SciLifeLab facility, Sweden). The NGS data were demultiplexed, adapter regions were trimmed and sequences with an average quality of at least 20 were translated to peptide sequences. The NGS data were analysed using custom Python scripts. The total read NGS counts for each selection experiment of each peptide sequence were compiled and annotated in PepTools (https://slim.icr.ac.uk/tools/peptools/). Since ProP-PD is in essence a competition assay, the possibility of the input phage library influencing the selection outcome was explored. […] Pearson correlation coefficient and p-value were calculated using Python’s SciPy library.

Row | enrichment_relative_to_wt at position 7 (wt G) | proportion of amino acid at position 7 (wt G) | Substance
1 | 3 | 0.0448 | KIAA1614_Q5VZ46_569_584 G7F (MERVLGFLSSPLRLLP; UniProt Q5VZ46 569-584, looked up, variant G7F)
2 | 1.89 | 0.03 | KIAA1614_Q5VZ46_569_584 G7Q (MERVLGQLSSPLRLLP; UniProt Q5VZ46 569-584, looked up, variant G7Q)

Same assay, conditions: PSSM, library USP8_DMS, days 2,3; position 10

Row | enrichment_relative_to_wt at position 10 (wt S) | proportion of amino acid at position 10 (wt S) | Substance
3 | -1.37 | 0.41 | KIAA1614_Q5VZ46_569_584 S10H (MERVLGGLSHPLRLLP; UniProt Q5VZ46 569-584, looked up, variant S10H)

Same assay, conditions: PSSM, library USP8_DMS, days 2,3; position 15

Row | enrichment_relative_to_wt at position 15 (wt L) | proportion of amino acid at position 15 (wt L) | Substance
4 | -89 | 0.0109 | KIAA1614_Q5VZ46_569_584 L15N (MERVLGGLSSPLRLNP; peptide 569-584; UniProt Q5VZ46 569-584, looked up, variant L15N)
5 | -207 | 0.00469 | KIAA1614_Q5VZ46_569_584 L15A (MERVLGGLSSPLRLAP; UniProt Q5VZ46 569-584, looked up, variant L15A)

Same assay, conditions: ProP-PD DMS, bait USP8_Rhodanese__P40818_174_317; pair wild-type GMERVLGGLSSPLRLL (wt_00013) vs mutant; positive where wild-type fraction is higher, negative where mutant fraction is higher

Row | hit_pair_ratio | Substance
6 | 80.49 | GMERVLGGLSSPLRLF
7 | 5.88 | GMERVLGGLSSPLHLL
8 | 1.41 | GMERVLGGLSSPTRLL
9 | 321.97 | GMERVLGGLSRPLRLL
10 | 321.97 | GMERVLGGLSSPNRLL
11 | 49.95 | GMERVLGGHSSPLRLL
12 | 54.66 | GMERVLGGLSSPDRLL
13 | 32.20 | GMERVLGGLSSPGRLL
14 | 160.99 | GMERVLGGLSSPRRLL
15 | 321.97 | GMERVLGGLSSQLRLL
16 | 321.97 | GMERVLGGLISPLRLL
17 | 15.92 | GMERVLGGLSEPLRLL
18 | 321.97 | GMERVLGGLVSPLRLL
19 | 20.85 | GMERVLGGGSSPLRLL
20 | 321.97 | GMERVLGGLASPLRLL
21 | -19.71 | GMERVLGGLSDPLRLL
22 | 8.26 | GMERVLGGLSSPLRLH
23 | 131.67 | GMERVLGGLESPLRLL
24 | 321.97 | GMERVLGGLSSPKRLL
25 | 160.99 | GMERVLGGRSSPLRLL
26 | 160.99 | GMERVLGGLSSPLRVL

Same assay, conditions: ProP-PD pairs, bait USP8_Rhodanese__P40818_174_317; wild-type/mutant pair, wild type KIAA1614 569-584 GMERVLGGLSSPLRLL (wt_00013)

Row | hit_pair_ratio | Substance
27 | 131.67 | GMEAVLGGLSSPLRLL
28 | 1.88 | GMQRVLGGLSSPLRLL
29 | 1.84 | GLERVLGGLSSPLRLL
30 | 321.97 | GMERVSGGLSSPLRLL
31 | -5.43 | GMERWLGGLSSPLRLL
32 | -3.38 | GMERVLQGLSSPLRLL
33 | 2.87 | EMERVLGGLSSPLRLL
34 | 17.24 | GMYRVLGGLSSPLRLL
35 | -43.42 | GMERVLTGLSSPLRLL
36 | 4.69 | GMERALGGLSSPLRLL
37 | 321.97 | GMERVVGGLSSPLRLL
38 | 2.67 | GMERVLGGSSSPLRLL
39 | -10.69 | GMERELGGLSSPLRLL
40 | 14.78 | GMERVLGVLSSPLRLL
41 | -1.45 | GKERVLGGLSSPLRLL
42 | -80.43 | GMERVLGGESSPLRLL
43 | 2.55 | GMERVLSGLSSPLRLL
44 | 3.37 | GWERVLGGLSSPLRLL
45 | 24.34 | IMERVLGGLSSPLRLL
46 | 1.08 | GYERVLGGLSSPLRLL
47 | -4.95 | GDERVLGGLSSPLRLL
48 | 160.99 | GMERVLGNLSSPLRLL
49 | -4.18 | GMERHLGGLSSPLRLL
50 | 6.27 | MMERVLGGLSSPLRLL
51 | -1.75 | GMDRVLGGLSSPLRLL
52 | -20.23 | GMERVLDGLSSPLRLL
53 | 64.39 | LMERVLGGLSSPLRLL

Same assay, conditions: bait USP8_Rhodanese__P40818_174_317; wild-type/mutant pair ratio of averaged fractions; negative values where mutant fraction is higher

Row | hit_pair_ratio | Substance
54 | -4.35 | GLALWEAKMEQLAERA
55 | 1107.01 | GLALWEAKMKQMAERA
56 | -2.45 | GLALWEAKMHQLAERA
57 | 1107.01 | GLALWEAKMKQSAERA
58 | 1.94 | GLALWEAKMRQLAERA
59 | -7.21 | GLALWEAKMSQLAERA
60 | 19.96 | GLALWEAKMIQLAERA
61 | 31.22 | GLALWEAKMKQLLERA
62 | -2.25 | SMERVLGGLSSPLRLL
63 | 38.36 | GLALWEAKMKQLAEWA
64 | 2.24 | GLALWEAKMWQLAERA
65 | 72.57 | GLALWEAKMKQLAERL
66 | 1107.01 | GLALWEAKMKQLAEAA
67 | 87.51 | GLALWEAKMKQLPERA
68 | 73.80 | GLALWEAKMKQLANRA
69 | -3.00 | GLALWEAKMKQLGERA
70 | 1.21 | GLALWEAKMKQLAERT
71 | -1.09 | GLALWEAKMKQLAERI
72 | 208.81 | GLALWEAKMKQLAEFA
73 | 23.91 | GLALWEAKMKMLAERA
74 | -19.29 | GLALWEAKMKQLEERA
75 | 5.87 | GLALWEAKMKQLAEGA
76 | 66.48 | GLALWEAKMKQLAEDA
77 | 133.35 | GLALWEAKMKALAERA
78 | 195.90 | GLALWEAKMKQLAEVA
79 | -1.95 | GLALWEAKMKQLAETA
80 | -4.51 | GLALWEAKMKQLAEQA
81 | -9.71 | AMERVLGGLSSPLRLL
82 | 208.81 | GLALWEAKMKQLAYRA
83 | 14.06 | GLALWEAKMKQLAGRA

Same assay, conditions: wild type/mutant pair; bait USP8_Rhodanese__P40818_174_317; vs hit_library_peptide_wt GLALWEAKMKQLAERA; negative where mutant fraction exceeds wild type; ProP-PD pairs (sheet S7.B)

Row | hit_pair_ratio | Substance
84 | -1.59 | GVALWEAKMKQLAERA
85 | 175.67 | GHALWEAKMKQLAERA
86 | 208.81 | GLALWEYKMKQLAERA
87 | 1107.01 | GLAKWEAKMKQLAERA
88 | 1107.01 | GPALWEAKMKQLAERA
89 | 110.70 | GLALPEAKMKQLAERA
90 | 11.88 | GLALWETKMKQLAERA
91 | 369.00 | GKALWEAKMKQLAERA
92 | -44.11 | GLAIWEAKMKQLAERA
93 | 369.00 | GLKLWEAKMKQLAERA
94 | 208.81 | GLAGWEAKMKQLAERA
95 | 92.62 | GLALWEVKMKQLAERA
96 | 369.00 | GLALWEAKFKQLAERA
97 | 92.62 | GLTLWEAKMKQLAERA
98 | 1107.01 | GLALHEAKMKQLAERA
99 | 75.56 | ELALWEAKMKQLAERA
100 | 52.71 | GLAEWEAKMKQLAERA
101 | 369.00 | GLALWEAKVKQLAERA
102 | 12.82 | GLARWEAKMKQLAERA
103 | 276.75 | GLALWEAKNKQLAERA
104 | 101.08 | GLASWEAKMKQLAERA
105 | 1107.01 | GLALFEAKMKQLAERA
106 | -1.30 | GLALWEQKMKQLAERA
107 | 208.81 | GLALWEANMKQLAERA
108 | 123.00 | GLALWEAKYKQLAERA
109 | 23.98 | GLALWEWKMKQLAERA
110 | 68.11 | GLALWEGKMKQLAERA
